Reference: EP3842803A1, “CXCL14 IN POLYCYSTIC OVARY SYNDROME” (Katholieke Universiteit Leuven, priority 2019, dated 2021)

Assays:
[1] = test system: CXCL14 mRNA expression; assay: cells; type: cell-based, human; settings: for effect of addition to pioglitazone on pioglitazone induction of CXCL14 mRNA expression: added to pioglitazone, 10 days across differentiation (Figure 2B)
Experimental: (§1) • Figure 1 • A. Baseline circulating CXCL14 concentrations in girls with polycystic ovary syndrome (PCOS, N= 52) and in healthy age-matched controls (N= 21). Data are mean + SEM. • B. Longitudinal results of CXCL14 serum concentrations in girls with PCOS who received an oral contraceptive (OC, white circles, N= 16) or low-dose spironolactone, pioglitazone and metformin (SPIOMET, black circles, N= 15). […] SGBS human pre-adipocytes were treated chronically (10 days) with pioglitazone, spironolactone or metformin alone (A) or in combination (B, C, D) at the indicated doses across the adipoipogeic differentiation process. • A, B. CXCL14 transcript levels are presented as means + SEM from 4-5 independent experiments, and are expressed relative to values from untreated control cells. • C. […] SGBS cells were treated acutely (24h, at the indicated doses) when already differentiated adipocytes.
(§2) Cell culture reagents and drugs were from Sigma.

[2] = test system: CXCL14 protein; assay: CXCL14 protein (ELISA) in cell culture medium of differentiating SGBS cells; type: cell-based, human; settings: chronic treatment across differentiation; detectable only under pioglitazone treatment
From the text: as §2

[3] = test system: CXCL14 mRNA expression; assay: CXCL14 transcript levels (qRT-PCR) in already differentiated SGBS adipocytes treated acutely (24h); type: cell-based, human; settings: acute 24h treatment; spironolactone at 10 µM (Figure 3A)
Experimental: as §1, §2

[4] = test system: CXCL14 protein; settings: sgbs adipocytes, 24 h
Experimental: as §1, §2

Row | Structure (SMILES) | fold induction at 0.1 µM ([1]; Homo sapiens, SGBS, 240 h, read-out: induction of CXCL14 mRNA expression) | CXCL14 protein in the cell culture medium of differentiating cells [2] | effect of addition to pioglitazone on pioglitazone induction of CXCL14 mRNA expression [1] | CXCL14 mRNA expression on already differentiated human adipocytes [3] | increase of the CXCL14 protein levels released by adipocytes to the cell culture medium [4]
1 | CCc1ccc(CCOc2ccc(CC3SC(=O)NC3=O)cc2)nc1 (stereo not shown) [pioglitazone] | ~10 | 0.185 ng/mL |  |  | 
2 | CC(=O)S[C@@H]1CC2=CC(=O)CC[C@]2(C)[C@H]2CC[C@@]3(C)[C@@H](CC[C@@]34CCC(=O)O4)[C@H]12 [spironolactone] |  |  | reduced significantly | significant induction | ~8 fold
3 | CN(C)C(=N)N=C(N)N [metformin] |  |  | did not modify | Neither pioglitazone nor metformin alone had any effect | 
